ChEMBL document CHEMBL1155902, “Nitrogen-containing flavonoid analogues as CDK1/cyclin B inhibitors: synthesis, SAR analysis, and biological activity” (Bioorg Med Chem, 2008)

Molecular target: Cyclin-dependent kinase 1/cyclin B1 (Homo sapiens, UniProt P06493)
Experiment: Inhibition of Cdk1/cyclin B
Format: protein-complex assay

Cyclin-dependent kinase 1/cyclin B1, sequence (P06493 whole entry): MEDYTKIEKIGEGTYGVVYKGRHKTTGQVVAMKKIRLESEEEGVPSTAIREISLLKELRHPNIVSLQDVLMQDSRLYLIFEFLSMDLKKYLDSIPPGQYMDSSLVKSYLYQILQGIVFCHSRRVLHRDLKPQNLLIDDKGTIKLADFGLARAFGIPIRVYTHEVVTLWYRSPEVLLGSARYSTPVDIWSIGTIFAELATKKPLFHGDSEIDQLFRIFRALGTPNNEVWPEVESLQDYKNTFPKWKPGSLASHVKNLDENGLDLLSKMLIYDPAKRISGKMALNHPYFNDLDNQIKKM
Cyclin-dependent kinase 1/cyclin B1, sequence (P14635 whole entry, further chain): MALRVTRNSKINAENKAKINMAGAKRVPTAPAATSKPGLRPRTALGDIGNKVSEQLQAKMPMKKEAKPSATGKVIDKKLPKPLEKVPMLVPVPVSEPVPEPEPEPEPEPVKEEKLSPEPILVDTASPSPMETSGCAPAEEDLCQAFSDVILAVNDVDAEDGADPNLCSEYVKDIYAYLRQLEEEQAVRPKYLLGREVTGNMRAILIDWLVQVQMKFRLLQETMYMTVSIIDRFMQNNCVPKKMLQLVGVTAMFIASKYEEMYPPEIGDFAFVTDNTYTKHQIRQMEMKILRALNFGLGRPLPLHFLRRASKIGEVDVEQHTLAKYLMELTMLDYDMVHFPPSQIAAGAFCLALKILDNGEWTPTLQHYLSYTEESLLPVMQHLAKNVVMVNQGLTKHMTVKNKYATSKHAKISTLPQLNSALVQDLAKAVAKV

| IC50 [µM] | SMILES |
| --- | --- |
| 1.28 | O=c1cc(-c2ccccc2)oc2c(CN3CCCCC3)c(O)c(O)c(O)c12 |
| > 20 | O=c1c(O)c(-c2ccc(O)c(O)c2)oc2c(CN3CCOCC3)c(O)cc(O)c12 |
| 0.38 | O=c1cc(-c2ccccc2)oc2c(CN3CCSCC3)c(O)c(O)c(O)c12 |
| > 20 | COc1cc(O)c(C(=O)/C=C/c2ccccc2)cc1CN1CCOCC1 |
| 0.28 | O=c1cc(-c2ccccc2)oc2c(CN3CCOCC3)c(O)c(O)c(O)c12 |
| > 20 | CN1CCN(Cc2c(O)cc(O)c3c(=O)c(O)c(-c4ccc(O)c(O)c4)oc23)CC1 |
| 18.7 | O=c1c(O)c(-c2ccc(O)c(O)c2)oc2c(CN3CCCCC3)c(O)cc(O)c12 |
| > 20 | COc1cc(O)c(C(=O)/C=C/c2ccccc2)cc1CN1CCCC1 |
| 0.27 | CN1CCN(Cc2c(O)c(O)c(O)c3c(=O)cc(-c4ccccc4)oc23)CC1 |
| 11.6 | COC(=O)[C@H]1O[C@@H](Oc2cc3oc(-c4ccccc4)cc(=O)c3c(O)c2O)[C@H](O)[C@H](O)[C@@H]1O [BAICALIN METHYLATE] |
| > 20 | COc1cc(O)c(C(=O)/C=C/c2ccccc2)cc1CN1CCCCC1 |

Further lines, the molecule ahead of its results:

| SMILES | IC50 [µM] |
| --- | --- |
| O=c1cc(-c2ccccc2)oc2cc(O)c(O)c(O)c12 [BAICALEIN] | 6.53 |
| CN(C)Cc1c(O)c(O)c(O)c2c(=O)cc(-c3ccccc3)oc12 | 1.05 |
| COc1cc(O)c(C(=O)/C=C/c2ccccc2)cc1CN1CCSCC1 | > 20 |
| O=c1cc(-c2ccccc2)oc2c(CN3CCCC3)c(O)c(O)c(O)c12 | 1.22 |
| COc1ccc(C(=O)/C=C/c2ccccc2)c(O)c1 | > 20 |
| CN(C)Cc1c(O)cc(O)c2c(=O)c(O)c(-c3ccc(O)c(O)c3)oc12 | 15.7 |
| COc1cc(O)c(C(=O)/C=C/c2ccccc2)cc1CN1CCN(C)CC1 | > 20 |
| O=c1c(O)c(-c2ccc(O)c(O)c2)oc2cc(O)cc(O)c12 [QUERCETIN] | > 20 |
| O=C(O)[C@H]1O[C@@H](Oc2cc3oc(-c4ccccc4)cc(=O)c3c(O)c2O)[C@H](O)[C@@H](O)[C@@H]1O [BAICALIN] | 14.4 |
| COc1cc(O)c(C(=O)/C=C/c2ccccc2)cc1CN(C)C | > 20 |
